Molecules are shown by their SMILES. pIC50: −log10 of the molar value. Counter-ions that a name gives are not always drawn.

The target of this experiment is T1, human HPK1 (MAP4K1) (Homo sapiens, UniProt Q92918).
T1 construct: Recombinant human HPK1 kinase domain was obtained from ThermoFisher (Cat. #PV6357) and SignalChem (Cat. #M23-11G); purchased ThermoFisher; SignalChem PV6357; M23-11G
T1 sequence (Q92918 17-274 limits assumed): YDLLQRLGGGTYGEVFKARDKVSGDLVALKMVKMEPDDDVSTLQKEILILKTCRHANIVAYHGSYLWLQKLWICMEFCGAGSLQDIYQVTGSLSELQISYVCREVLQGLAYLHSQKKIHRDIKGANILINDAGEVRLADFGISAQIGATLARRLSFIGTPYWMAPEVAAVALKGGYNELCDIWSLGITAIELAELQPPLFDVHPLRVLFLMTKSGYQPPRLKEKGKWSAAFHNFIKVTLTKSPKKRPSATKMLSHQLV
Description: Biochemical assay for activity against HPK1 (ADP-Glo, MBP substrate). Conditions: recombinant human HPK1 kinase domain, 1 nM enzyme, ADP-Glo luminescence. The gist of the method: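 IC50s come from ADP-Glo luminescence after a 2 h room-temperature reaction phosphorylating MBP in the presence of ATP. Compound was first preincubated 15 min with 1 nM HPK1 kinase domain, human recombinant. Buffer: 50 mM HEPES pH 7.5, 150 mM NaCl, 3 mM TCEP, 10 mM MgCl2, 0.005% Tween-20, 0.01% BSA.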
On the technique in general: ADP-Glo first removes unused ATP, then detects ADP through luciferase.
With `COc1cc2c(cc1Nc1ncc3cnn([C@H]4CC[C@H](CO)C4)c3n1)CN(C)CC2` (racemic) [Example 48, rac-(trans-3-(6-((6-methoxy-2-methyl-1,2,3,4-tetrahydroisoquinolin-7-yl)amino)-1H-pyrazolo[3,4-d]pyrimidin-1-yl)cyclopentyl)methanol], the negative logarithm of the IC50 (pIC50) (commonly −log10 of the IC50, conventionally taken in molar units) is over 7.00.

With `COc1cc2c(cc1Nc1ncc3cnn([C@H]4CC[C@@H](CO)CC4)c3n1)CN(C)CC2` [Example 67, cis-[4-[6-[(6-methoxy-2-methyl-3,4-dihydro-1H-isoquinolin-7-yl)amino]pyrazolo[3,4-d]pyrimidin-1-yl]cyclohexyl]methanol], the negative-log IC50 (pIC50) was over 7.00.

As to `CC(=O)N1CCC[C@H]1Cn1ncc2cnc(Nc3ccc4c(c3)CN(C)CC4)nc21` [Example 139, (S)-1-(2-((6-((2-methyl-1,2,3,4-tetrahydroisoquinolin-7-yl)amino)-1H-pyrazolo[3,4-d]pyrimidin-1-yl)methyl)pyrrolidin-1-yl)ethan-1-one], the negative-log IC50 (pIC50) was over 7.00.

Consider `COc1cc2c(cc1Nc1ncc3cnn(C[C@@H]4C[C@H](C)CN4C(C)=O)c3n1)CN(C)CC2` [Example 136, 1-((2S,4S)-2-((6-((6-methoxy-2-methyl-1,2,3,4-tetrahydroisoquinolin-7-yl)amino)-1H-pyrazolo[3,4-d]pyrimidin-1-yl)methyl)-4-methylpyrrolidin-1-yl)ethan-1-one], for which the pIC50 was 6.60 to 7.00.

For `COc1cc2c(cc1Nc1ncc3cnn(CC4CCCOC4)c3n1)CN(C)CC2` (racemic) [Example 200, (S)-6-methoxy-2-methyl-N-(1-((tetrahydro-2H-pyran-3-yl)methyl)-1H-pyrazolo[3,4-d]pyrimidin-6-yl)-1,2,3,4-tetrahydroisoquinolin-7-amine and (R)-6-methoxy-2-methyl-N-(1-((tetrahydro-2H-pyran-3-yl)methyl)-1H-pyrazolo[3,4-d]pyrimidin-6-yl)-1,2,3,4-tetrahydroisoquinolin-7-amine racemic mixture], the negative-log IC50 (pIC50) was over 7.00.

As for `COc1cc2c(cc1Nc1ncc3cnn(C4CCCN(C(C)=O)C4)c3n1)CN(C)CC2` (centres unmarked) [Example 109, 1-(3-(6-((6-methoxy-2-methyl-1,2,3,4-tetrahydroisoquinolin-7-yl)amino)-1H-pyrazolo[3,4-d]pyrimidin-1-yl)piperidin-1-yl)ethan-1-one], the pIC50 is over 7.00.

On to `COc1cc2c(cc1Nc1ncc3cnn(CC[C@@H](C)O)c3n1)CN(C)CC2` [Example 83, (2R)-4-[6-[(6-methoxy-2-methyl-3,4-dihydro-1H-isoquinolin-7-yl)amino]pyrazolo[3,4-d]pyrimidin-1-yl]butan-2-ol], for which the pIC50 is over 7.00.

Regarding `COc1cc2c(cc1Nc1ncc3cnn(C(C)C(C)(C)C#N)c3n1)CN(C)CC2` (centres unmarked) [Example 151, 3-(6-((6-methoxy-2-methyl-1,2,3,4-tetrahydroisoquinolin-7-yl)amino)-1H-pyrazolo[3,4-d]pyrimidin-1-yl)-2,2-dimethylbutanenitrile hydrochloride], the pIC50 is over 7.00.

For the compound `COC(C)(C)CCn1ncc2cnc(Nc3ccc4c(c3)CN(C)CC4)nc21` [Example 11, N-(1-(3-methoxy-3-methylbutyl)-1H-pyrazolo[3,4-d]pyrimidin-6-yl)-2-methyl-1,2,3,4-tetrahydroisoquinolin-7-amine], the pIC50 is over 7.00.

With `COc1cc2c(cc1Nc1ncc3cnn(C[C@H]4CN(C(C)=O)CCO4)c3n1)CN(C)CC2` [Example 127, (R)-1-(2-((6-((6-methoxy-2-methyl-1,2,3,4-tetrahydroisoquinolin-7-yl)amino)-1H-pyrazolo[3,4-d]pyrimidin-1-yl)methyl)morpholino)ethan-1-one trifluoroacetate], the pIC50 was over 7.00.

As for `COc1cc2c(cc1Nc1ncc3cnn(C[C@@H]4[C@@H](C)CCN4C(C)=O)c3n1)CN(CCO)CC2` [Example 223, 1-((2S,3S)-2-((6-((2-(2-hydroxyethyl)-6-methoxy-1,2,3,4-tetrahydroisoquinolin-7-yl)amino)-1H-pyrazolo[3,4-d]pyrimidin-1-yl)methyl)-3-methylpyrrolidin-1-yl)ethan-1-one], the negative logarithm of the IC50 (pIC50) was over 7.00.

`COc1nc2c(cc1Nc1ncc3cnn([C@H]4CC[C@H](CO)CC4)c3n1)CN(C)CC2` [Example 170]: the pIC50 was over 7.00.

Consider `COc1cc2c(cc1Nc1ncc3cnn(CC4CCCCO4)c3n1)CN(C)CC2` (racemic) [Example 201, (S)-6-methoxy-2-methyl-N-(1-((tetrahydro-2H-pyran-2-yl)methyl)-1H-pyrazolo[3,4-d]pyrimidin-6-yl)-1,2,3,4-tetrahydroisoquinolin-7-amine and (R)-6-methoxy-2-methyl-N-(1-((tetrahydro-2H-pyran-2-ylmethyl)-1H-pyrazolo[3,4-d]pyrimidin-6-yl)-1,2,3,4-tetrahydroisoquinolin-7-amine Hydrochloride, Racemic Mixture], for which the pIC50 is over 7.00.

Take `COc1cc2c(cc1Nc1ncc3cnn([C@H](C)CCO)c3n1)CN(C)CC2` [Example 99, (3R)-3-[6-[(6-methoxy-2-methyl-3,4-dihydro-1H-isoquinolin-7-yl)amino]pyrazolo[3,4-d]pyrimidin-1-yl]butan-1-ol]: the negative logarithm of the IC50 (pIC50) is over 7.00.

For the compound `COc1cc2c(cc1Nc1ncc3cnn([C@H]4C[C@H](CO)C4)c3n1)CN(C)CC2` [Example 65, trans-[3-[6-[(6-methoxy-2-methyl-3,4-dihydro-1H-isoquinolin-7-yl)amino]pyrazolo[3,4-d]pyrimidin-1-yl]cyclobutyl]methanol], the pIC50 was over 7.00.

As to `COC(=O)N[C@@H](C)Cn1ncc2cnc(Nc3cc4c(cc3OC)CCN(C)C4)nc21` [Example 95, methyl N-[(1S)-2-[6-[(6-methoxy-2-methyl-3,4-dihydro-1H-isoquinolin-7-yl)amino]pyrazolo[3,4-d]pyrimidin-1-yl]-1-methyl-ethyl]carbamate], the pIC50 was over 7.00.

In the case of `COc1cc2c(cc1Nc1ncc3cnn(C4CCN(C(=O)C(F)(F)F)CC4)c3n1)CN(C)CC2` [Example 107, 2,2,2-trifluoro-1-(4-(6-((6-methoxy-2-methyl-1,2,3,4-tetrahydroisoquinolin-7-yl)amino)-1H-pyrazolo[3,4-d]pyrimidin-1-yl)piperidin-1-yl)ethan-1-one trifluroacetate], the pIC50 is 6.60 to 7.00.

Turning to `COc1cc2c(cc1Nc1ncc3cnn(C[C@@H]4CCCN4C(C)=O)c3n1)C(C)(C)N(C)CC2` [Example 178, (S)-1-(2-((6-((6-methoxy-1,1,2-trimethyl-1,2,3,4-tetrahydroisoquinolin-7-yl)amino)-1H-pyrazolo[3,4-d]pyrimidin-1-yl)methyl)pyrrolidin-1-yl)ethan-1-one], the pIC50 is over 7.00.

`COc1cc2c(cc1Nc1ncc3cnn([C@H]4CCC[C@H](O)C4)c3n1)CN(C)CC2` (racemic) [Example 44, rac-(trans)-3-(6-((6-methoxy-2-methyl-1,2,3,4-tetrahydroisoquinolin-7-yl)amino)-1H-pyrazolo[3,4-d]pyrimidin-1-yl)cyclohexan-1-ol]: the pIC50 is over 7.00.

As to `CCN1CCc2cc(OC)c(Nc3ncc4cnn([C@H]5CC[C@H](CO)CC5)c4n3)cc2C1` [Example 168, [4-[6-[(2-ethyl-6-methoxy-3,4-dihydro-1H-isoquinolin-7-yl)amino]pyrazolo[3,4-d]pyrimidin-1-yl]cyclohexyl]methanol], the pIC50 was over 7.00.

As for `COC[C@H]1CC[C@H](n2ncc3cnc(Nc4cc5c(cc4OC)CCN(C)C5)nc32)CC1` [Example 175, 6-methoxy-N-[trans-1-[4-(methoxymethyl)cyclohexyl]pyrazolo[3,4-d]pyrimidin-6-yl]-2-methyl-3,4-dihydro-1H-isoquinolin-7-amine], the pIC50 is over 7.00.

On to `COC(=O)N1CCC[C@H]1Cn1ncc2cnc(Nc3cc4c(cc3OC)CCN(C)C4)nc21` [Example 113, methyl (S)-2-((6-((6-methoxy-2-methyl-1,2,3,4-tetrahydroisoquinolin-7-yl)amino)-1H-pyrazolo[3,4-d]pyrimidin-1-yl)methyl)pyrrolidine-1-carboxylate trifluoroacetate], for which the negative logarithm of the IC50 (pIC50) was over 7.00.

For `COc1cc2c(cc1Nc1ncc3cnn([C@H]4CCC[C@H](CO)C4)c3n1)CN(C)CC2` [Example 63, ((1S,3S)-3-(6-((6-methoxy-2-methyl-1,2,3,4-tetrahydroisoquinolin-7-yl)amino)-1H-pyrazolo[3,4-d]pyrimidin-1-yl)cyclohexyl)methanol hydrochloride], the pIC50 was over 7.00.

As to `CNC(=O)[C@H]1CC[C@H](n2ncc3cnc(Nc4cc5c(cc4OC)CCN(C)C5)nc32)C1` (racemic) [Example 43, rac-(1S,3S)-3-(6-((6-methoxy-2-methyl-1,2,3,4-tetrahydroisoquinolin-7-yl)amino)-1H-pyrazolo[3,4-d]pyrimidin-1-yl)-N-methylcyclopentane-1-carboxamide], the negative-log IC50 (pIC50) is over 7.00.

In the case of `COc1cc2c(cc1Nc1ncc3cnn(C4C=CCCC4)c3n1)CN(C)CC2` (centres unmarked) [Example 34, N-(1-(cyclohex-2-en-1-yl)-1H-pyrazolo[3,4-d]pyrimidin-6-yl)-6-methoxy-2-methyl-1,2,3,4-tetrahydroisoquinolin-7-amine], the pIC50 is over 7.00.

Regarding `CN1CCc2c(cc(Nc3ncc4cnn([C@H]5CC[C@H](O)CC5)c4n3)cc2C(F)(F)F)C1` [Example 58, (1r,4r)-4-(6-((2-methyl-5-(trifluoromethyl)-1,2,3,4-tetrahydroisoquinolin-7-yl)amino)-1H-pyrazolo[3,4-d]pyrimidin-1-yl)cyclohexan-1-ol], the negative logarithm of the IC50 (pIC50) was over 7.00.

The record behind these values is patent US11918582B2 (RAPT Therapeutics, Inc., priority 2021, dated 2024).
